Assay results reported in US20220387411A1, “TARGETED AUTOPHAGY CONJUGATES AND METHODS” (Frontier Medicines Corporation, priority 2019, published 2022).

The compounds below were run against Protein SQSTM1 (p62) (Homo sapiens, UniProt Q13501) (assay: Dose response of Compound 1 and Compound 19 against SQSTM1 (TAMRA fluorescence)). Conditions: pre-incubated at 2, 0.5, 0.125 and 0.03 μM, then reactive probe TAMRA; FIG. 1.
Chain of Protein SQSTM1 (p62) (Q13501 whole entry): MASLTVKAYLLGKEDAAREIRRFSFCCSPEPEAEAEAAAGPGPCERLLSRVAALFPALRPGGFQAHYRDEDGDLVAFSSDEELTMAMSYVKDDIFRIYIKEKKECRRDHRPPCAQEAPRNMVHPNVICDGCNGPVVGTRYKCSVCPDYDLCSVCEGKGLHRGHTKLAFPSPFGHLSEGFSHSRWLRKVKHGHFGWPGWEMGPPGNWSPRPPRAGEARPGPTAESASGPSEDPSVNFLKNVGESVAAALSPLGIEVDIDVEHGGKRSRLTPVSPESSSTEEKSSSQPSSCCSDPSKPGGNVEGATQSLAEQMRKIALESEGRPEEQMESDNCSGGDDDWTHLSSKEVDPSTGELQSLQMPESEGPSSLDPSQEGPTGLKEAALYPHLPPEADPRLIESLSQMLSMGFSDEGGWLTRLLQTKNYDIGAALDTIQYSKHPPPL
Format: binding
Protocol: Protein SQSTM1 (p62) was pre-incubated with either Compound 1 or Compound 19 at concentrations of 2, 0.5, 0.125, and 0.03 μM, followed by addition of the reactive probe 5-carboxytetramethylrhodamine (TAMRA). Measurements were made using TAMRA fluorescence. Silver staining of the protein was used as a protein loading control. Decreasing fluorescence of TAMRA indicates binding of the test compound.
For COc1ccc(CN(C(=O)CCl)c2nccs2)c(OC)c1 [Compound 1, 2-chloro-N-(2,4-dimethoxybenzyl)-N-(thiazol-2-yl)acetamide], the “binding to SQSTM1 (decreasing TAMRA fluorescence)” value was “covalently bind to SQSTM1”. With O=C(CCl)N1CCCCC(F)(F)C1 [Compound 19, 2-chloro-1-(3,3-difluoroazepan-1-yl)ethanone] the “binding to SQSTM1 (decreasing TAMRA fluorescence)” value was “covalently bind to SQSTM1”.

These compounds were tested against T1, Recombinant pure human SQSTM1 protein (Homo sapiens, UniProt Q13501) (assay: Inhibition of IA-Rhodamine labeling of SQSTM1 (gel-based, densitometry)). Conditions: 50 μM of test compound (initial screen); 30 min at 37° C., then 100 nM IA-Rhodamine 1 hour; inhibition of target labeling by densitometry.
T1 construct: purchased Origene
T1 sequence (Q13501 whole entry): as above
Format: binding
Protocol: Recombinant pure human SQSTM1 protein was purchased from Origene. SQSTM1 protein (0.21 μg) was diluted into 50 μL of PBS and 1 μL of either DMSO (vehicle) or covalently acting small molecule (test compound) to achieve the desired concentration. After 30 min. at 37° C., the samples were treated with 100 nM IA-Rhodamine (tetramethylrhodamine-5-iodoacetamide dihydroiodide; Setareh Biotech, 6222, prepared in anhydrous DMSO) for 1 hour at room temperature. Samples were then diluted with 20 μL of 4× reducing Laemmli SDS sample loading buffer (Alfa Aesar) and heated at 90° C. for 5 min. The samples were separated on precast 4-20% Criterion TGX gels (Bio-Rad Laboratories, Inc.). Fluorescent imaging was performed on a ChemiDoc MP instrument (Bio-Rad Laboratories, Inc.), and inhibition of target labeling was assessed by densitometry using ImageJ software. The initial screen was performed using 50 μM of test compound.
In the case of COc1ccc(CN(C(=O)CCl)c2nccs2)c(OC)c1 [Compound 1, 2-chloro-N-(2,4-dimethoxybenzyl)-N-(thiazol-2-yl)acetamide], the inhibition at 50 µM is reported as 79%. In the case of O=C(CCl)N1CCCCC(F)(F)C1 [Compound 19, 2-chloro-1-(3,3-difluoroazepan-1-yl)ethanone], the inhibition at 50 µM is reported as 83%. Compound CCOC(=O)c1cnc2n1CCN(C(=O)CCl)CC2 [Compound 54, Ethyl 7-(2-chloroacetyl)-6,7,8,9-tetrahydro-5H-imidazo[1,2-d][1,4]diazepine-3-carboxylate] has an inhibition at 50 µM of 46%. O=C(CCl)N1Cc2ccnn2CC(O)C1 (centres unmarked) [Compound 55, 2-chloro-1-(7-hydroxy-7,8-dihydro-4H-pyrazolo[1,5-a][1,4]diazepin-5(6H)-yl)ethanone] showed an inhibition at 50 µM of 35%. For O=C(CCl)N1CCc2nccn2CC1 [Compound 56, 2-chloro-1-(8,9-dihydro-5H-imidazo[1,2-d][1,4]diazepin-7(6H)-yl)ethanone], the inhibition at 50 µM was 50%. Compound CC(C)(C)OC(=O)N1CCCC12CCCN(C(=O)CCl)CC2 (centres unmarked) [Compound 57, Tert-butyl 8-(2-chloroacetyl)-1,8-diazaspiro[4.6]undecane-1-carboxylate] has an inhibition at 50 µM of 58%. Compound CC(C)(C)OC(=O)N1CCCCC2(CCCCN(C(=O)CCl)C2)C1 (centres unmarked) [Compound 58, Tert-butyl 9-(2-chloroacetyl)-2,9-diazaspiro[6.6]tridecane-2-carboxylate] has an inhibition at 50 µM of 82%. Work on CC(C)(C)OC(=O)N1CCN(C(=O)CCl)CC2(CCCC(=O)N2)C1 (centres unmarked) [Compound 60, Tert-butyl 11-(2-chloroacetyl)-2-oxo-1,8,11-triazaspiro[5.6]dodecane-8-carboxylate] yielded an inhibition at 50 µM of 21%. Work on CC(C)(C)OC(=O)N1CC2CC1CN(C(=O)CCl)C2 (centres unmarked) [Compound 61, Tert-butyl 3-(2-chloroacetyl)-3,6-diazabicyclo[3.2.1]octane-6-carboxylate] yielded an inhibition at 50 µM of 18%. With O=C(CCl)N(C1CCNCC1)C1CC1 [Compound 62, 2-chloro-N-cyclopropyl-N-(4-piperidyl)acetamide] the inhibition at 50 µM was 27%. In the case of O=C(CCl)N(C1CCNCC1)C1CCOCC1 [Compound 63, 2-chloro-N-(piperidin-4-yl)-N-(tetrahydro-2H-pyran-4-yl)acetamide], the “% inhibition” value is reported as “not active”. CC(C)N(C(=O)CCl)C1CCCNCC1 (centres unmarked) [Compound 64, N-(azepan-4-yl)-2-chloro-N-isopropyl-acetamide] gave an inhibition at 50 µM of 22%. In the case of COC(=O)c1ccc(CN(C(=O)CCl)C2CCNCC2)[nH]1 [Compound 65, Methyl 5-[[(2-chloroacetyl)-(4-piperidyl)amino]methyl]-1H-pyrrole-2-carboxylate], the inhibition at 50 µM is reported as 7%. With C[C@H]1CNCCCN1C(=O)CCl [Compound 66, (S)-2-chloro-1-(2-methyl-1,4-diazepan-1-yl)ethanone] the “% inhibition” value was “not active”. In the case of O=C(CCl)N1CCNCC(O)C1 (centres unmarked) [Compound 67, 2-chloro-1-(6-hydroxy-1,4-diazepan-1-yl)ethanone], the inhibition at 50 µM is reported as 35%. In the case of NC1CCCCN(C(=O)CCl)C1 (centres unmarked) [Compound 68, 1-(3-aminoazepan-1-yl)-2-chloro-ethanone], the inhibition at 50 µM is reported as 44%. With O=C(CCl)N1CCCC2(CCCN2)CC1 (centres unmarked) [Compound 69, 2-chloro-1-(1,8-diazaspiro[4.6]undecan-8-yl)ethanone] the inhibition at 50 µM was 22%. O=C(CCl)N1CCCCC2(CCCCNC2)C1 (centres unmarked) [Compound 70, 2-chloro-1-(2,9-diazaspiro[6.6]tridecan-2-yl)ethanone] showed an inhibition at 50 µM of 22%. In the case of O=C(CCl)N1CCOCC2(CNCCO2)C1 (centres unmarked) [Compound 71, 2-chloro-1-(1,8-dioxa-4,11-diazaspiro[5.6]dodecan-11-yl)ethanone], the “% inhibition” value is reported as “not active”. In the case of O=C1CCCC2(CNCCN(C(=O)CCl)C2)N1 (centres unmarked) [Compound 72, 8-(2-chloroacetyl)-1,8,11-triazaspiro[5.6]dodecan-2-one], the “% inhibition” value is reported as “not active”. In the case of O=C(CCl)N1CC2CNC(C2)C1 (centres unmarked) [Compound 73, 2-chloro-1-(3,6-diazabicyclo[3.2.1]octan-3-yl)ethanone], the inhibition at 50 µM is reported as 38%.
